By EC50 is commonly meant the midpoint of the concentration-response curve. Broadly, the Cmax is the highest concentration seen after dosing. As usually defined, the Tmax is the time at which the peak concentration occurs.

The values below come from patent US11858910B2, “Pyridinylmethylenepiperidine derivatives and uses thereof” (SUNSHINE LAKE PHARMA CO., LTD., priority 2018, dated 2024).

Data set [1] has as its target T1, human 5-HT1F receptor (Homo sapiens, UniProt P30939).
T1 construct: expressed in transfected cells; host or cells: CHO-K1
T1 sequence (P30939 1-366): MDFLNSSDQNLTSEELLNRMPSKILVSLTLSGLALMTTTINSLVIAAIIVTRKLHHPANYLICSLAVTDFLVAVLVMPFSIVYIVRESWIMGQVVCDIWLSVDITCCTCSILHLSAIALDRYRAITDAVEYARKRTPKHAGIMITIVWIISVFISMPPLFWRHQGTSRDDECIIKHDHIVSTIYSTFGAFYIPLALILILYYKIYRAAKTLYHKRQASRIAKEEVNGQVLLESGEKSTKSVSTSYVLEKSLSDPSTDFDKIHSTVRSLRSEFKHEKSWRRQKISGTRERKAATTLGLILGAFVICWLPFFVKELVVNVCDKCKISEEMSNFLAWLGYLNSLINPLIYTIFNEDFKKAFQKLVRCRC
Nature of the data set: Activating effect on human 5-HT1F receptor transfected CHO-K1 cells (HitHunter cAMP detection kit). The data set is classed as cell-based. Here is the method:
Experimental purposes: To evaluate the activating effect of the compound on CHO-K1 cells transfected human 5-HT1F receptor by using HitHunter cAMP detection kit.
Experimental brief process: CHO-K1 cells were cultured in a 384 microporous plate. The volume of cell culture medium (Assay Complete™ Cell Plating Reagent, DIscoverX) was 20 μL and the cell density was 10,000/well. The cells were cultured overnight at 37° C. and 5% CO2. Then the culture medium was removed, and 15 μL of cAMP Assay Buffer (DIscoverX) was added into each well, and then 5 μL of test sample containing 4× sample (test compound or 5-HT) and 4× forskolin (final concentration of forskolin is 15 μM) was added. The microporous plate was placed at 37° C. for 30 minutes. Then 5 μL of cAMP Antibody Reagent (DiscoverX) and 20 μL of cAMP Working Detection Solution (DiscoverX) were added and incubated in the dark for 1 hour, and then 20 μL of cAMP Solution A was added and incubated in the dark for 3 hours. The microporous plate was placed in the Perkin Elmer Envision™ to read the intensity of the optical signal. The activation rate was calculated by the intensity of the optical signal obtained from testing the compounds with different concentrations ((1−(Y/Z))*100%=the activation rate, wherein, Y represents the intensity of the optical signal adding test sample, and Z represents the intensity of the optical signal adding only forskolin). The dose-effect curve of the compounds was calculated by Prism software, and the concentration of the agonist with half maximum response was calculated and expressed by EC50 value. The results were shown in Table A. 5-HT was used as a positive control drug to ensure the normal experimental system in this experiment.

A short description of data set [2]: Pharmacokinetic evaluation after intravenous or gavage administration to dogs. The data set is classed as in vivo, Beagle dogs. Here is the method: (§1) The inventors had evaluated the pharmacokinetics of the compounds of the invention in rats and dogs. Wherein animal information was detailed in Table 1.
(§2) The compound was administered to the animal subjects in the form of 5% DMSO+60% PEG400+35% Saline solution or 10% DMSO+10% Kolliphor HS15+30% PEG400+50% Saline solution. The animals were fasted for 12 hours before administration, but drinking water freely. For the group of intravenous administration, the administration dose is 0.5 mg/kg or 1 mg/kg, and vein blood samples (0.15 mL) were collected at the time points of 0.083, 0.25, 0.5, 1.0, 2.0, 4.0, 6.0, 8.0 and 24 h (dogs) or 0.083, 0.25, 0.5, 1.0, 2.0, 5.0, 7.0 and 24 h (rats) after drug administration. EDTA-K2 as anticoagulant was pre-added into the blood vessel. The plasma solutions were collected by centrifuging each blood sample at 12,000 rpm for 2 minutes and kept at −20° C. or −70° C. For the group of gavage administration, the administration dose is 2.5 mg/kg or 5 mg/kg, and vein blood samples (0.15 mL) were collected at the time points of 0.25, 0.5, 1.0, 2.0, 4.0, 6.0, 8.0 and 24 h (dogs) or 0.25, 0.5, 1.0, 2.0, 5.0, 7.0 and 24 h (rats) after drug administration. EDTA-K2 as anticoagulant was pre-added into the blood vessel. The plasma solutions were collected by centrifuging each blood sample at 12,000 rpm for 2 minutes and kept at −20° C. or −70° C.
(§3) After processing the above plasma sample (the frozen plasma was melted at room temperature and then whirled for 15 seconds. 10 to 20 μL of the plasma was taken out, and whirled with 120 to 150 μL of an acetonitrile solution containing an internal standard for 5 minutes. The mixture was centrifuged for 5 minutes at 4,000 rpm. 100 μL of the supernatant was taken out and mixed with 120 to 150 μL of methanol-water (v/v=1/1)), the concentration of compounds in plasma was analyzed by LC-MS/MS. […] The compound of the invention has better drug properties and better clinical application prospects. Wherein the pharmacokinetic parameters of examples 12 and 19 in rats were detailed in Table B1; the pharmacokinetic parameters of examples 12 and 19 in dogs were detailed in Table B2.

The nature of data set [3]: Pharmacokinetic evaluation after intravenous or gavage administration to rats. In kind it is in vivo, SD rats. How it is done:
as §1, §2, §3

Where [4] appears, read: CHO-K1 cells, forskolin 15 μM, cAMP, read-out: EC50.
Setting [5] is: Beagle, dog, in vivo, iv, 0.5 mg/kg.
The mark [6] stands for this setting: beagle, dog, in vivo, po, 2.5 mg/kg.

Each structure is given as a SMILES string. Like-named read-outs stand apart in the source and are kept apart here.

For the molecule `CN1CCC(=C(F)c2cccc(NC(=O)c3ccc(F)cc3F)n2)CC1` [Example 10, 2,4-difluoro-N-(6-(fluoro(1-methylpiperidin-4-ylidene)methyl)pyridine-2-yl)benzamide], in data set [1] (setting [4]), the 50% effective concentration (EC50) came out at 3 nM.
The molecule `CN1CCC(=C(F)c2cccc(NC(=O)c3c(F)cc(F)cc3F)n2)CC1` [Example 12, 2,4,6-trifluoro-N-(6-(fluoro(1-methylpiperidin-4-ylidene)methyl)pyridine-2-yl)benzamide] yielded an EC50 in data set [1] of 1.5 nM. The AUC(0-inf) in data set [2] (Beagle, dog, plasma, iv, dogs, i.v group, 1 mg/kg, read-out: AUCINF) was 660 ng·h/mL; in data set [2] (Beagle, dog, plasma, po, dogs, i.g group, 5 mg/kg, read-out: AUCINF), 705 ng·h/mL; in data set [3] (SD, rat, plasma, iv, rats, i.v group, 1 mg/kg, read-out: AUCINF), 114 ng·h/mL; in data set [3] (SD, rat, plasma, po, rats, i.g group, 5 mg/kg, read-out: AUCINF), 354 ng·h/mL. In addition, the AUC(0-t) in data set [2] (Beagle, dog, plasma, iv, dogs, i.v group, 1 mg/kg, read-out: AUClast) came out at 652 ng·h/mL; in data set [2] (Beagle, dog, plasma, po, dogs, i.g group, 5 mg/kg, read-out: AUClast), 691 ng·h/mL; in data set [3] (SD, rat, plasma, iv, rats, i.v group, 1 mg/kg, read-out: AUClast) it was 111 ng·h/mL; in data set [3] (SD, rat, plasma, po, rats, i.g group, 5 mg/kg, read-out: AUClast), 296 ng·h/mL. Besides, the clearance in data set [2] (Beagle, dog, plasma, iv, dogs, i.v group, 1 mg/kg, read-out: Cl) was 25.2 mL/min/kg; in data set [3] (SD, rat, plasma, iv, rats, i.v group, 1 mg/kg, read-out: Cl), 146 mL/min/kg. Also, the Cmax stood at 170 ng/mL in data set [2] (Beagle, dog, plasma, iv, dogs, i.v group, 1 mg/kg, read-out: Cmax); 82.8 ng/mL in data set [2] (Beagle, dog, plasma, po, dogs, i.g group, 5 mg/kg, read-out: Cmax); 80.5 ng/mL in data set [3] (SD, rat, plasma, iv, rats, i.v group, 1 mg/kg, read-out: Cmax); 71.8 ng/mL in data set [3] (SD, rat, plasma, po, rats, i.g group, 5 mg/kg, read-out: Cmax). Also, the MRT inf in data set [2] (Beagle, dog, plasma, iv, dogs, i.v group, 1 mg/kg, read-out: MRTINF) turned out to be 4.11 h; in data set [2] (Beagle, dog, plasma, po, dogs, i.g group, 5 mg/kg, read-out: MRTINF), 5.98 h; in data set [3] (SD, rat, plasma, iv, rats, i.v group, 1 mg/kg, read-out: MRTINF) it was 1.66 h; in data set [3] (SD, rat, plasma, po, rats, i.g group, 5 mg/kg, read-out: MRTINF), 4.05 h. Also, the half-life is 3.52 h in data set [2] (Beagle, dog, plasma, iv, dogs, i.v group, 1 mg/kg, read-out: T1/2 (converted)); 4.28 h in data set [2] (Beagle, dog, plasma, po, dogs, i.g group, 5 mg/kg, read-out: T1/2 (converted)); 1.38 h in data set [3] (SD, rat, plasma, iv, rats, i.v group, 1 mg/kg, read-out: T1/2 (converted)); 2.31 h in data set [3] (SD, rat, plasma, po, rats, i.g group, 5 mg/kg, read-out: T1/2 (converted)). For the same molecule, the time to peak (Tmax) in data set [2] (Beagle, dog, plasma, iv, dogs, i.v group, 1 mg/kg, read-out: Tmax) came out at 0.25 h; in data set [2] (Beagle, dog, plasma, po, dogs, i.g group, 5 mg/kg, read-out: Tmax), 1.67 h; in data set [3] (SD, rat, plasma, iv, rats, i.v group, 1 mg/kg, read-out: Tmax), 0.083 h; in data set [3] (SD, rat, plasma, po, rats, i.g group, 5 mg/kg, read-out: Tmax), 2 h. Also, the Vd in data set [2] (Beagle, dog, plasma, iv, dogs, i.v group, 1 mg/kg, read-out: Vss) was found to be 6.22 L/kg; in data set [3] (SD, rat, plasma, iv, rats, i.v group, 1 mg/kg, read-out: Vss), 14.6 L/kg. The F in data set [2] (dogs, i.g group, 5 mg/kg) was determined as 21.4%; in data set [3] (rats, i.g group, 5 mg/kg), 62%.
For the molecule `CN1CCC(=Cc2cccc(NC(=O)c3ccc(F)cc3F)n2)CC1` [Example 3, 2,4-difluoro-N-(6-((1-methylpiperidin-4-ylidene)methyl)pyridine-2-yl)benzamide], in data set [1] (setting [4]), the EC50 was determined as 5.9 nM.
Same read-out and setting: for `CN1CCC(=Cc2cccc(NC(=O)c3c(F)cc(F)cc3F)n2)CC1` [Example 5, 2,4,6-trifluoro-N-(6-((1-methylpiperidin-4-ylidene)methyl)pyridine-2-yl)benzamide] the value was 1.9 nM.
For `CCN1CCC(=C(F)c2cccc(NC(=O)c3c(F)cc(F)cc3F)n2)CC1` [Example 19, 2,4,6-trifluoro-N-(6-(fluoro(1-ethylpiperidin-4-ylidene)methyl)pyridin-2-yl)benzamide], in data set [1] (setting [4]), the concentration for a half-maximal effect (EC50) was 6.8 nM. In data set [2] (Beagle, dog, in vivo, 2.5 mg/kg), this molecule came in with an F of 12.4%. For the same molecule, in data set [2] (setting [5]), the AUC(0-inf) came to 634 ng·h/mL, the AUC(0-t) came out at 632 ng·h/mL, the concentration peaked (Cmax) at 442 ng/mL and the MRT inf was 1.39 h. In data set [2] (setting [5]), the time of peak concentration (Tmax) amounted to 0.083 h, the Vd was found to be 1.1 L/kg, the clearance is 13.1 mL/min/kg and the half-life was 1.06 h. In addition, in data set [2] (setting [6]), the AUC(0-inf) was found to be 392 ng·h/mL, the AUC(0-t) amounted to 356 ng·h/mL, the peak concentration (Cmax) was 126 ng/mL and the MRT inf came out at 3.26 h. In data set [2] (setting [6]), the time of peak concentration (Tmax) was found to be 1 h and the half-life was 1.96 h. In addition, the F in data set [3] (SD, rat, in vivo, 5 mg/kg) is given as 105%. In data set [3] (SD, rat, in vivo, iv, 1 mg/kg), this molecule yielded an AUC(0-inf) of 259 ng·h/mL, an AUC(0-t) of 240 ng·h/mL, a Cmax of 67.7 ng/mL and an MRT inf of 2.95 h. In addition, in data set [3] (SD, rat, in vivo, iv, 1 mg/kg), the time to peak (Tmax) came out at 0.5 h, the Vd was found to be 11.4 L/kg, the clearance came to 64.4 mL/min/kg and the half-life was 2.1 h. In data set [3] (SD, rat, in vivo, po, 5 mg/kg), this molecule yielded an AUC(0-inf) of 1320 ng·h/mL, an AUC(0-t) of 1260 ng·h/mL, a Cmax of 169 ng/mL and an MRT inf of 5.01 h. For the same molecule, in data set [3] (SD, rat, in vivo, po, 5 mg/kg), the Tmax worked out at 3.67 h and the half-life was 3.06 h.
